Reference: PubChem BioAssay AID1963831 (Molecular Pharmacology Branch, DTP, NCI, 2024)

System: 889142-216-R-J1-PDC complex spheroid viability
Test: Anticancer human tumor 889142-216-R-J1-PDC patient-derived bladder carcinoma cell line growth inhibition [POLQ]
Settings: for IC50: curve of first compound; for viability, T/C: stronger effect = lower value
How it was run: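 Growth inhibition in 3D: complex spheroids (tumor PDC, HUVEC, MSC) treated with POLQ inhibitor combinations; where Cmax unknown, highest tested concentration 10 microM, except SN-38 at 1 microM.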

[1] = second compound 0.0316 µM, first compound 0.0316 µM
[2] = second compound 0.0316 µM, first compound 0.1 µM
[3] = second compound 0.0316 µM, first compound 0.316 µM
[4] = second compound 0.0316 µM, first compound 1 µM
[5] = second compound 0.0316 µM, first compound 3.16 µM
[6] = second compound 0.0316 µM, first compound 10 µM
[7] = second compound 0.1 µM, first compound 0.0316 µM
[8] = second compound 0.1 µM, first compound 0.1 µM
[9] = second compound 0.1 µM, first compound 0.316 µM
[10] = second compound 0.1 µM, first compound 1 µM
[11] = second compound 0.1 µM, first compound 3.16 µM
[12] = second compound 0.1 µM, first compound 10 µM
[13] = second compound 0.316 µM, first compound 0.0316 µM
[14] = second compound 0.316 µM, first compound 0.1 µM
[15] = second compound 0.316 µM, first compound 0.316 µM
[16] = second compound 0.316 µM, first compound 1 µM
[17] = second compound 0.316 µM, first compound 3.16 µM
[18] = second compound 0.316 µM, first compound 10 µM
[19] = second compound 1 µM, first compound 0.0316 µM
[20] = second compound 1 µM, first compound 0.1 µM
[21] = second compound 1 µM, first compound 0.316 µM
[22] = second compound 1 µM, first compound 1 µM
[23] = second compound 1 µM, first compound 3.16 µM
[24] = second compound 1 µM, first compound 10 µM
[25] = second compound 3.16 µM, first compound 0.0316 µM
[26] = second compound 3.16 µM, first compound 0.1 µM
[27] = second compound 3.16 µM, first compound 0.316 µM
[28] = second compound 3.16 µM, first compound 1 µM
[29] = second compound 3.16 µM, first compound 3.16 µM
[30] = second compound 3.16 µM, first compound 10 µM
[31] = second compound 10 µM, first compound 0.0316 µM
[32] = second compound 10 µM, first compound 0.1 µM
[33] = second compound 10 µM, first compound 0.316 µM
[34] = second compound 10 µM, first compound 1 µM
[35] = second compound 10 µM, first compound 3.16 µM
[36] = second compound 10 µM, first compound 10 µM
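Further: spheroids exposed to compounds for seven days.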
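Wherever viability, T/C is given: 100% = DMSO vehicle control viability.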

## CC(=O)O[C@H]1C(=O)[C@@]2(C)[C@H]([C@H](OC(=O)c3ccccc3)[C@]3(O)C[C@H](OC(=O)[C@H](O)[C@@H](NC(=O)c4ccccc4)c4ccccc4)C(C)=C1C3(C)C)[C@]1(OC(C)=O)CO[C@@H]1C[C@@H]2O + Cc1cccc(N(C)C(=O)C2C(O)CCN2c2nc(C)cc(C(F)(F)F)c2C#N)c1
Second compound 0.0316 µM
  IC50: > 3000 nM
Second compound 0.1 µM
  IC50: 344 nM
Second compound 0.316 µM
  IC50: > 3000 nM
Second compound 1 µM
  IC50: > 3000 nM
Second compound 3.16 µM
  IC50: 9.5 nM
Second compound 10 µM
  IC50: < 9.49 nM
Second compound 0.0316 µM, first compound 0.00949 µM
  viability, T/C: 50.8%
Second compound 0.0316 µM, first compound 0.03 µM
  viability, T/C: 45.5%
Second compound 0.0316 µM, first compound 0.0949 µM
  viability, T/C: 57.5%
Second compound 0.0316 µM, first compound 0.3 µM
  viability, T/C: 47.5%
Second compound 0.0316 µM, first compound 0.949 µM
  viability, T/C: 53.1%
Second compound 0.0316 µM, first compound 3 µM
  viability, T/C: 57.5%
Second compound 0.1 µM, first compound 0.00949 µM
  viability, T/C: 51.4%
Second compound 0.1 µM, first compound 0.03 µM
  viability, T/C: 56.5%
Second compound 0.1 µM, first compound 0.0949 µM
  viability, T/C: 42.7%
Second compound 0.1 µM, first compound 0.3 µM
  viability, T/C: 44.4%
Second compound 0.1 µM, first compound 0.949 µM
  viability, T/C: 59%
Second compound 0.1 µM, first compound 3 µM
  viability, T/C: 47.3%
Second compound 0.316 µM, first compound 0.00949 µM
  viability, T/C: 56.7%
Second compound 0.316 µM, first compound 0.03 µM
  viability, T/C: 50.6%
Second compound 0.316 µM, first compound 0.0949 µM
  viability, T/C: 46.8%
Second compound 0.316 µM, first compound 0.3 µM
  viability, T/C: 49.1%
Second compound 0.316 µM, first compound 0.949 µM
  viability, T/C: 59.4%
Second compound 0.316 µM, first compound 3 µM
  viability, T/C: 50.3%
Second compound 1 µM, first compound 0.00949 µM
  viability, T/C: 52%
Second compound 1 µM, first compound 0.03 µM
  viability, T/C: 54%
Second compound 1 µM, first compound 0.0949 µM
  viability, T/C: 48.8%
Second compound 1 µM, first compound 0.3 µM
  viability, T/C: 49.5%
Second compound 1 µM, first compound 0.949 µM
  viability, T/C: 52.2%
Second compound 1 µM, first compound 3 µM
  viability, T/C: 53.4%
Second compound 3.16 µM, first compound 0.00949 µM
  viability, T/C: 49.8%
Second compound 3.16 µM, first compound 0.03 µM
  viability, T/C: 48.4%
Second compound 3.16 µM, first compound 0.0949 µM
  viability, T/C: 46.7%
Second compound 3.16 µM, first compound 0.3 µM
  viability, T/C: 56.9%
Second compound 3.16 µM, first compound 0.949 µM
  viability, T/C: 48.3%
Second compound 3.16 µM, first compound 3 µM
  viability, T/C: 46%
Second compound 10 µM, first compound 0.00949 µM
  viability, T/C: 50.5%
Second compound 10 µM, first compound 0.03 µM
  viability, T/C: 45.4%
Second compound 10 µM, first compound 0.0949 µM
  viability, T/C: 46.9%
Second compound 10 µM, first compound 0.3 µM
  viability, T/C: 48.2%
Second compound 10 µM, first compound 0.949 µM
  viability, T/C: 44%
Second compound 10 µM, first compound 3 µM
  viability, T/C: 52.7%

## COc1cc(C2c3cc4c(cc3C(OC3OC5COC(C)OC5C(O)C3O)C3COC(=O)C23)OCO4)cc(OC)c1O (stereo not drawn) + Cc1cccc(N(C)C(=O)C2C(O)CCN2c2nc(C)cc(C(F)(F)F)c2C#N)c1
Second compound 0.0316 µM
  IC50: > 10000 nM
Second compound 0.1 µM
  IC50: > 10000 nM
Second compound 0.316 µM
  IC50: > 10000 nM
Second compound 1 µM
  IC50: > 10000 nM
Second compound 3.16 µM
  IC50: > 10000 nM
Second compound 10 µM
  IC50: 4630 nM
[1]
  viability, T/C: 83.9%
[2]
  viability, T/C: 74.5%
[3]
  viability, T/C: 65.3%
[4]
  viability, T/C: 53.5%
[5]
  viability, T/C: 65.1%
[6]
  viability, T/C: 66%
[7]
  viability, T/C: 82.6%
[8]
  viability, T/C: 85.2%
[9]
  viability, T/C: 70.9%
[10]
  viability, T/C: 56.4%
[11]
  viability, T/C: 68.5%
[12]
  viability, T/C: 57.6%
[13]
  viability, T/C: 93.1%
[14]
  viability, T/C: 86.9%
[15]
  viability, T/C: 59.4%
[16]
  viability, T/C: 64%
[17]
  viability, T/C: 70.1%
[18]
  viability, T/C: 52.6%
[19]
  viability, T/C: 86.2%
[20]
  viability, T/C: 83.6%
[21]
  viability, T/C: 62%
[22]
  viability, T/C: 45.9%
[23]
  viability, T/C: 70.6%
[24]
  viability, T/C: 58.8%
[25]
  viability, T/C: 83%
[26]
  viability, T/C: 81.2%
[27]
  viability, T/C: 64.2%
[28]
  viability, T/C: 62.1%
[29]
  viability, T/C: 62.4%
[30]
  viability, T/C: 52.4%
[31]
  viability, T/C: 77.4%
[32]
  viability, T/C: 74.1%
[33]
  viability, T/C: 61%
[34]
  viability, T/C: 61%
[35]
  viability, T/C: 59.8%
[36]
  viability, T/C: 40.4%

## Nc1ccn(C2OC(CO)C(O)C2(F)F)c(=O)n1 (stereo not drawn) + Cc1cccc(N(C)C(=O)C2C(O)CCN2c2nc(C)cc(C(F)(F)F)c2C#N)c1
Second compound 0.0316 µM
  IC50: 177 nM
Second compound 0.1 µM
  IC50: 138 nM
Second compound 0.316 µM
  IC50: 140 nM
Second compound 1 µM
  IC50: 330 nM
Second compound 3.16 µM
  IC50: 213 nM
Second compound 10 µM
  IC50: 99.1 nM
[1]
  viability, T/C: 67.7%
[2]
  viability, T/C: 49.5%
[3]
  viability, T/C: 48.8%
[4]
  viability, T/C: 40.5%
[5]
  viability, T/C: 40.4%
[6]
  viability, T/C: 31.4%
[7]
  viability, T/C: 59%
[8]
  viability, T/C: 53.9%
[9]
  viability, T/C: 44.5%
[10]
  viability, T/C: 39.1%
[11]
  viability, T/C: 44%
[12]
  viability, T/C: 36.3%
[13]
  viability, T/C: 55.6%
[14]
  viability, T/C: 50.4%
[15]
  viability, T/C: 46%
[16]
  viability, T/C: 45%
[17]
  viability, T/C: 39.1%
[18]
  viability, T/C: 34%
[19]
  viability, T/C: 58.3%
[20]
  viability, T/C: 57.9%
[21]
  viability, T/C: 49.2%
[22]
  viability, T/C: 43.9%
[23]
  viability, T/C: 38.7%
[24]
  viability, T/C: 32.5%
[25]
  viability, T/C: 54.7%
[26]
  viability, T/C: 54.7%
[27]
  viability, T/C: 47.7%
[28]
  viability, T/C: 43.7%
[29]
  viability, T/C: 37.5%
[30]
  viability, T/C: 31.7%
[31]
  viability, T/C: 69.2%
[32]
  viability, T/C: 49%
[33]
  viability, T/C: 43.9%
[34]
  viability, T/C: 43.8%
[35]
  viability, T/C: 46.6%
[36]
  viability, T/C: 34%

## O=c1[nH]cc(F)c(=O)[nH]1 + Cc1cccc(N(C)C(=O)C2C(O)CCN2c2nc(C)cc(C(F)(F)F)c2C#N)c1
Second compound 0.0316 µM
  IC50: > 10000 nM
Second compound 0.1 µM
  IC50: > 10000 nM
Second compound 0.316 µM
  IC50: > 10000 nM
Second compound 1 µM
  IC50: > 10000 nM
Second compound 3.16 µM
  IC50: > 10000 nM
Second compound 10 µM
  IC50: > 10000 nM
[1]
  viability, T/C: 96%
[2]
  viability, T/C: 85.2%
[3]
  viability, T/C: 81.1%
[4]
  viability, T/C: 94%
[5]
  viability, T/C: 63.6%
[6]
  viability, T/C: 61%
[7]
  viability, T/C: 102%
[8]
  viability, T/C: 84.3%
[9]
  viability, T/C: 75.9%
[10]
  viability, T/C: 54.4%
[11]
  viability, T/C: 63.7%
[12]
  viability, T/C: 65.1%
[13]
  viability, T/C: 109%
[14]
  viability, T/C: 99.3%
[15]
  viability, T/C: 73.6%
[16]
  viability, T/C: 71.3%
[17]
  viability, T/C: 79.1%
[18]
  viability, T/C: 77.7%
[19]
  viability, T/C: 93.4%
[20]
  viability, T/C: 93.2%
[21]
  viability, T/C: 74.3%
[22]
  viability, T/C: 72%
[23]
  viability, T/C: 71.8%
[24]
  viability, T/C: 73.1%
[25]
  viability, T/C: 80.8%
[26]
  viability, T/C: 87.6%
[27]
  viability, T/C: 80.3%
[28]
  viability, T/C: 88.9%
[29]
  viability, T/C: 83%
[30]
  viability, T/C: 65.9%
[31]
  viability, T/C: 71%
[32]
  viability, T/C: 79.9%
[33]
  viability, T/C: 83.3%
[34]
  viability, T/C: 64.1%
[35]
  viability, T/C: 70.3%
[36]
  viability, T/C: 65%
